Data: patent US9296720B2, “Carboxamide-substituted heteroaryl-pyrazoles and the use thereof” (AiCuris GmbH & Co. KG, priority 2011, dated 2016)
Read-outs that look alike come from different tables or passages of the source.

Legend:
Type in all cases: cell-based
[1] = test system: HIV-1NL4-3 Wild Type; test: Luminescence reduction assay, MT4 cells infected with HIV-1NL4-3 luciferase reporter virus, wild type; settings: 2% FCS
How it was run: (§1)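 Compound dilution series in 1% DMSO, with 2% or 10% FCS, incubated 5 days at 37° C/5% CO2 with MT4 cells previously pellet-infected (2 h) by luciferase reporter NL4-3 virus, wild type or carrying RT resistance mutations. EC50 taken where luminescence from secreted luciferase falls to 50% of untreated infected control.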

[2] = test system: HIV-1NL4-3 K103N-Y181C; test: Luminescence reduction assay, MT4 cells infected with HIV-1NL4-3 luciferase reporter virus, RT mutant K103N-Y181C
How it was run: as §1

[3] = test system: HIV-1LAI Wild Type; test: AlamarBlue viability assay, HIV-1LAI-infected MT4 cells; settings: 10% FCS
How it was run: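 MT4 cells infected with HIV-1LAI (MOI 0.01, supernatant infection) cultured 5 days at 37 °C with compounds in RPMI with 2% or 10% FCS, 1% DMSO final. AlamarBlue fluorescence after 3 h; EC50 as 50% protection relative to uninfected cells, CC50 from high-concentration cytotoxicity.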

[4] = Human immunodeficiency virus 1, MT4, MT4 cells
[5] = Human immunodeficiency virus 1, MT4, read-out: EC50 (μM) MT4 Cells HIV-1NL4-3 K103N-Y181C 2% FCS, MT4 cells, HIV-1NL4-3 K103N-Y181C, 2% FCS

SMILES	EC50 [1, 4] [µM]	EC50 [2, 5] [µM]	EC50 [3, 4] [µM]	EC50 ([1]; MT4 cells) [µM]	EC50 ([2]; read-out: EC50 (μM) MT4 Cells HIV-1NL4-3 K103N-Y181C 2% FCS, MT4 cells, HIV-1NL4-3 K103N-Y181C, 2% FCS) [µM]	EC50 ([3]; MT4 cells) [µM]
O=C1CN(C(=O)c2cc(-c3cc(F)cc(Br)c3)n(-c3cccnc3)n2)CN1 [Example 90, 1-{[5-(3-Bromo-5-fluorophenyl)-1-(pyridin-3-yl)-1H-pyrazol-3-yl]carbonyl}imidazolidin-4-one]	0.003	0.033	0.011	–	–	–
Cc1cc(-n2nc(C(=O)N3CNC(=O)C3)cc2-c2cc(Br)cc(OC(F)(F)F)c2)ccn1 [Example 53, 1-({5-[3-Bromo-5-(trifluoromethoxy)phenyl]-1-(2-methylpyridin-4-yl)-1H-pyrazol-3-yl}carbonyl)imidazolidin-4-one]	0.023	0.008	0.302	–	–	–
COc1cc(-n2nc(C(=O)N3CNC(=O)C3)cc2-c2cc(F)cc(Cl)c2)ccn1 [Example 25, 1-{[5-(3-Chloro-5-fluorophenyl)-1-(2-methoxypyridin-4-yl)-1H-pyrazol-3-yl]carbonyl}imidazolidin-4-one]	0.004	0.04	0.011	–	–	–
N#Cc1cc(OC(F)(F)F)cc(-c2cc(C(=O)N3CNC(=O)C3)nn2-c2cccnc2)c1 [Example 88, 3-{3-[(4-Oxoimidazolidin-1-yl)carbonyl]-1-(pyridin-3-yl)-1H-pyrazol-5-yl}-5-(trifluoromethoxy)benzonitrile]	0.015	0.026	0.186	–	–	–
Cc1cc(-n2nc(C(=O)N3CC[S+]([O-])C3)cc2-c2cc(F)cc(Cl)c2)ccn1 (stereo not drawn) [Example 24, [5-(3-Chloro-5-fluorophenyl)-1-(2-methylpyridin-4-yl)-1H-pyrazol-3-yl](1-oxido-1,3-thiazolidin-3-yl)methanone]	0.066	> 3.3	0.668	–	–	–
O=C1CN(C(=O)c2cc(-c3cncc(Cl)c3)n(-c3ccc(F)c(Cl)c3)n2)CN1 [Example 100, 1-{[1-(3-Chloro-4-fluorophenyl)-5-(5-chloropyridin-3-yl)-1H-pyrazol-3-yl]carbonyl}imidazolidin-4-one]	0.005	0.009	0.01	–	–	–
O=C1CN(C(=O)c2cc(-c3cc(Br)cc(OC(F)(F)F)c3)n(-c3cncc(Cl)c3)n2)CN1 [Example 42, 1-({5-[3-Bromo-5-(trifluoromethoxy)phenyl]-1-(5-chloropyridin-3-yl)-1H-pyrazol-3-yl}carbonyl)imidazolidin-4-one]	0.018	0.028	0.247	–	–	–
COc1cc(Br)cc(-c2cc(C(=O)N3CNC(=O)C3)nn2-c2ccnc(Cl)c2)c1 [Example 96, 1-{[5-(3-Bromo-5-methoxyphenyl)-1-(2-chloropyridin-4-yl)-1H-pyrazol-3-yl]carbonyl}imidazolidin-4-one]	0.004	0.02	0.016	–	–	–
O=C1CN(C(=O)c2cc(-c3cc(Cl)cc(OC(F)F)c3)n(-c3cccnc3)n2)CN1 [Example 81, 1-({5-[3-Chloro-5-(difluoromethoxy)phenyl]-1-(pyridin-3-yl)-1H-pyrazol-3-yl}carbonyl)imidazolidin-4-one]	0.003	0.008	0.015	–	–	–
O=C(c1cc(-c2cc(F)cc(OC(F)(F)F)c2)n(-c2cccnc2)n1)N1CC[S+]([O-])C1 (racemic) [Example 60, {5-[3-Fluoro-5-(trifluoromethoxy)phenyl]-1-(pyridin-3-yl)-1H-pyrazol-3-yl}(1-oxido-1,3-thiazolidin-3-yl)methanone]	–	–	–	0.077	0.621	0.997
O=C1CN(C(=O)c2cc(-c3cc(F)cc(OC(F)F)c3)n(-c3ccnc(Cl)c3)n2)CCN1 [Example 69, 4-({1-(2-Chloropyridin-4-yl)-5-[3-(difluoromethoxy)-5-fluorophenyl]-1H-pyrazol-3-yl}carbonyl)piperazin-2-one]	0.32	1.14	1.98	–	–	–
O=C(c1cc(-c2cc(F)cc(Cl)c2)n(-c2ccnc(C(F)(F)F)c2)n1)N1CCSC1 [Example 18]	0.284	> 3.3	> 3.3	–	–	–
Nc1ccc(-n2nc(C(=O)N3CNC(=O)C3)cc2-c2cc(F)cc(Cl)c2)cn1 [Example 12, 1-{[1-(6-Aminopyridin-3-yl)-5-(3-chloro-5-fluorophenyl)-1H-pyrazol-3-yl]carbonyl}imidazolidin-4-one]	0.189	0.377	1.79	–	–	–
O=C(c1cc(-c2cc(Br)cc(OC(F)(F)F)c2)n(-c2ccc(Cl)nc2)n1)N1CCSC1 [Example 36, {5-[3-Bromo-5-(trifluoromethoxy)phenyl]-1-(6-chloropyridin-3-yl)-1H-pyrazol-3-yl}(1,3-thiazolidin-3-yl)methanone]	0.149	0.08	2.37	–	–	–
O=C1CN(C(=O)c2cc(-c3cc(Br)cc(OC(F)(F)F)c3)n(-c3ccnc(C(F)(F)F)c3)n2)CN1 [Example 50, 1-({5-[3-Bromo-5-(trifluoromethoxy)phenyl]-1-[2-(trifluoromethyl)pyridin-4-yl]-1H-pyrazol-3-yl}carbonyl)imidazolidin-4-one]	0.102	0.167	1.86	–	–	–
O=C1CN(C(=O)c2cc(-c3ccnc(Cl)c3)n(-c3ccc(F)c(Cl)c3)n2)CN1 [Example 112, 1-{[1-(3-Chloro-4-fluorophenyl)-5-(2-chloropyridin-4-yl)-1H-pyrazol-3-yl]carbonyl}imidazolidin-4-one]	0.016	0.03	0.079	–	–	–
O=C1CN(C(=O)c2cc(-c3cc(Br)cc(OC(F)(F)F)c3)n(-c3ccc(Cl)nc3)n2)CN1 [Example 34, 1-({5-[3-Bromo-5-(trifluoromethoxy)phenyl]-1-(6-chloropyridin-3-yl)-1H-pyrazol-3-yl}carbonyl)imidazolidin-4-one]	0.01	0.003	0.098	–	–	–
O=C(c1cc(-c2cc(F)cc(Cl)c2)n(-c2ccnc(C(F)(F)F)c2)n1)N1CC[S+]([O-])C1 (stereo not drawn) [Example 19, {5-(3-Chloro-5-fluorophenyl)-1-[2-(trifluoromethyl)pyridin-4-yl]-1H-pyrazol-3-yl}(1-oxido-1,3-thiazolidin-3-yl)methanone]	0.152	> 3.3	2.5	–	–	–
COc1cc(OC(F)(F)F)cc(-c2cc(C(=O)N3CNC(=O)C3)nn2-c2cccnc2)c1 [Example 84, 1-({5-[3-Methoxy-5-(trifluoromethoxy)phenyl]-1-(pyridin-3-yl)-1H-pyrazol-3-yl}carbonyl)imidazolidin-4-one]	0.01	0.008	0.048	–	–	–
O=C1CN(C(=O)c2cc(-c3cnc(F)c(Cl)c3)n(-c3cccc(Cl)c3)n2)CN1 [Example 110, 1-{[5-(5-Chloro-6-fluoropyridin-3-yl)-1-(3-chlorophenyl)-1H-pyrazol-3-yl]carbonyl}imidazolidin-4-one]	0.024	0.039	0.025	–	–	–
O=C(c1cc(-c2cc(F)cc(OC(F)(F)F)c2)n(-c2ccnc(Cl)c2)n1)N1CCS(=O)(=O)C1 [Example 65, {1-(2-Chloropyridin-4-yl)-5-[3-fluoro-5-(trifluoromethoxy)phenyl]-1H-pyrazol-3-yl}(1,1-dioxido-1,3-thiazolidin-3-yl)methanone]	0.026	0.291	0.491	–	–	–
